Source: patent publication US20180185370A1, “PYRAZINOQUINAZOLINONE DERIVATIVES WITH ANTIBACTERIAL ACTIVITY, METHODS AND USES THEREOF” (UNIVERSIDADE DO PORTO, priority 2015, published 2018)
Read-outs that look alike come from different tables or passages of the source.

Tests used:
[1] = system: S. aureus B1; assay: Synergy screening with antibiotic discs, disc diffusion method; type: cell-based, Staphylococcus aureus; conditions: for zone of inhibition on agar plates: not in combination, MRSA isolate S. aureus B1; for inhibition zone: S. aureus B1
Experimental: (§1) Synergistic studies between compounds and antibiotics. A screening susceptibility test to assess the combined effect between the compounds and antibiotics was conducted using the disc diffusion method on MH, against three multidrug-resistant isolates, E. coli G1, S. aureus B1 and E. faecalis W1. A set of antibiotic discs (Oxoid, Basingstoke, England) was selected based on the resistance of the isolates towards those antibiotics. Based on the results of the previous assay, an unexpected synergetic effect between fiscalin C (see FIG. 1I, equation v) and oxacillin (Sigma-Aldrich, St. Louis, Mo., USA) was determined using, in particular, a broth microdilution Checkerboard method against the MRSA isolate (S. aureus B1). The fractional inhibitory concentration (FIC) was calculated as follows: FIC of drug A (FIC A)=MIC of drug A in combination/MIC of drug A alone, and FIC of drug B (FIC B)=MIC of drug B in combination/MIC of drug B alone. The FIC index (ΣFIC), calculated as the sum of each FIC, was interpreted as follows: ΣFIC 0.5, synergy; 0.5<ΣFIC 4, no interaction; 4<ΣFIC, antagonism.

[2] = system: S. aureus B1; assay: Broth microdilution Checkerboard method; type: cell-based, Staphylococcus aureus; conditions: for combined effect with oxacillin: fiscalin C with oxacillin, MRSA (S. aureus B1)
Experimental: as §1, with “Based on the results of the previous assay, an unexpected synergetic effect between fiscalin C (see FIG. 1I, equation v) and oxacillin (Sigma-Aldrich, St. Louis, Mo., USA) was determined using, in particular, a broth microdilution Checkerboard method against the MRSA isolate (S. aureus B1).” left out

[3] = system: S. aureus ATCC 25923; assay: Antibacterial susceptibility testing, broth microdilution (MIC/MBC); type: cell-based, Staphylococcus aureus; conditions: for MIC: Staphylococcus aureus, ATCC25923, read-out: Minimum inhibitory concentration-MIC
Experimental: (§2) Bacterial strains and growth conditions. Five reference strains, Staphylococcus aureus ATCC 25923, Bacillus subtilis ATCC 6633, E. faecalis ATCC 29212, Escherichia coli ATCC 25922 and Pseudomonas aeruginosa ATCC 27853, and three multidrug-resistant isolates from environment, S. aureus B1 (a MRSA isolated from public buses), Enterococcus faecalis W1 (a VRE isolated from river water) and E. coli G1 (isolated from seagull feces) were used. Bacteria were grown overnight at 37° C. in Mueller-Hinton agar (MH—BioKar diagnostics, Allonne, France) prior to obtain be used in the subsequently described bioassays.
(§3) Antibacterial susceptibility testing. The minimum inhibitory concentration (MIC) values of the compounds of FIGS. 1D, 1E, 1G, 1H (equation i-iv) and 11 (equations v-x) were determined, in particular, by a broth microdilution technique, following the recommendations of the Clinical and Laboratory Standards Institute. Stock solutions of 10 mg/ml in DMSO were used to prepare in-test concentrations ranging from 2 to 256 μg/ml. Ciprofloxacin in the concentration range from 0.03125 to 16 μg/ml was used, in particular, as control drug in the experiment. The MIC was defined as the lowest concentration of compound that has inhibited the visible growth. The minimum bactericidal concentration (MBC) was determined by spreading on MH plates, 10 μL collected from the wells corresponding to the MIC and to higher concentrations, with further incubation for 24 h at 37° C.; the lowest concentration at which no growth occurred on MH was defined as the MBC.

[4] = system: S. aureus B1 (MRSA); assay: as above; type: cell-based, Staphylococcus aureus; conditions: for MIC: Staphylococcus aureus, read-out: Minimum inhibitory concentration-MIC
Experimental: as §2, §3

[5] = system: B. subtilis ATCC 6633; assay: as above; type: cell-based, Bacillus subtilis; conditions: for MIC: Bacillus subtilis, ATCC6633, read-out: Minimum inhibitory concentration-MIC
Experimental: as §2, §3

[6] = system: P. aeruginosa ATCC 27853; assay: Antibacterial susceptibility testing, broth microdilution (MIC); type: cell-based, Pseudomonas aeruginosa; conditions: for MIC: Pseudomonas aeruginosa, ATCC27853, read-out: Minimum inhibitory concentration-MIC
Experimental: as §2, §3

[7] = system: E. coli ATCC 25922; assay: as above; type: cell-based, Escherichia coli; conditions: for MIC: Escherichia coli, ATCC25922, read-out: Minimum inhibitory concentration-MIC
Experimental: as §2, §3

[8] = system: E. faecalis ATCC 29212; assay: Antibacterial susceptibility testing, broth microdilution (MIC/MBC); type: cell-based, Enterococcus faecalis; conditions: for MIC: Enterococcus faecalis, ATCC29212, read-out: Minimum inhibitory concentration-MIC
Experimental: as §2, §3

[9] = system: E. faecalis W1 (VRE); assay: as above; type: cell-based, Enterococcus faecalis; conditions: for MIC: Enterococcus faecalis, read-out: Minimum inhibitory concentration-MIC
Experimental: as §2, §3

| Compound | Minimum inhibitory concentration-MIC [3] [µg/mL] | Minimum inhibitory concentration-MIC ([4]; S. aureus B1 (MRSA)) [µg/mL] | Minimum inhibitory concentration-MIC [5] [µg/mL] | Minimum inhibitory concentration-MIC [6] [µg/mL] | Minimum inhibitory concentration-MIC [7] [µg/mL] | Minimum inhibitory concentration-MIC [8] [µg/mL] | Minimum inhibitory concentration-MIC ([9]; E. faecalis W1 (VRE)) [µg/mL] | further results |
| --- | --- | --- | --- | --- | --- | --- | --- | --- |
| CC1(C)S[C@@H]2[C@H](NC(=O)[C@H](N)c3ccccc3)C(=O)N2[C@H]1C(=O)O [Ampicillin, ampicillin, reference compound] |  |  |  |  |  |  |  | zone of inhibition on agar plates [1]: neither fiscalin C, ampicillin or oxacillin produced any zone of inhibition; MIC ([2]; Staphylococcus aureus, B1): 128 µg/mL |
| epi-neofiscalin A [FIG. 1I (eq. x)] | >256 | >256 | >256 | >256 | >256 | >256 | >256 |  |
| tryptoquivaline O [FIG. 1H (eq. iv)] | >256 | >256 | >256 | >256 | >256 | >256 | >256 |  |
| CC(C)[C@@H]1NC(=O)[C@@H](C[C@]2(O)c3ccccc3N3C(=O)[C@H](C)N[C@H]32)n2c1nc1ccccc1c2=O [FIG. 1I (eq. vii), fiscalin A] | >256 | >256 | >256 | >256 | >256 | >256 | >256 |  |
| CC(C)[C@H]1NC(=O)[C@@H](C[C@]2(O)c3ccccc3N3C(=O)[C@H](C)N[C@H]32)n2c1nc1ccccc1c2=O [FIG. 1I (eq. viii), epi-fiscalin A] | >256 | >256 | >256 | >256 | >256 | >256 | >256 |  |
| O=C1OC2(CC1n1cnc3ccccc3c1=O)C(=O)Nc1ccccc12 (centres unmarked) [FIG. 1G, 3′-(4oxoquinazolin-3yl) spiro [1H-indole-3,5′-oxolane]-2,2′-dione] |  |  |  |  |  |  |  | MIC [3]: > 256 µg/mL; MIC ([4]; S. aureus B1 (MRSA)): > 256 µg/mL; MIC [5]: > 256 µg/mL; MIC [6]: > 256 µg/mL; MIC [7]: > 256 µg/mL; MIC [8]: > 256 µg/mL; MIC ([9]; E. faecalis W1 (VRE)): > 256 µg/mL |
| CC(=O)O[C@H](c1nc2ccccc2c(=O)n1[C@@H]1C[C@]2(OC1=O)c1ccccc1N1C(=O)C(C)(C)N(O)[C@H]12)C(C)C [FIG. 1E, tryptoquivaline] |  |  |  |  |  |  |  | MIC [3]: > 256 µg/mL; MIC ([4]; MRSA): > 256 µg/mL; MIC [5]: > 256 µg/mL; MIC [6]: > 256 µg/mL; MIC [7]: > 256 µg/mL; MIC [8]: > 256 µg/mL; MIC ([9]; VRE): > 256 µg/mL |
| CC(C)[C@]12NC(=O)[C@H](Cc3c1[nH]c1ccccc31)n1c2nc2ccccc2c1=O [FIG. 1D, sartorymensin] | > 256 | >256 | >256 | >256 | >256 | >256 | >256 |  |
| C[C@H]1C(=O)N2c3ccccc3[C@@]3(C[C@@H](n4cnc5ccccc5c4=O)C(=O)O3)[C@@H]2N1O [FIG. 1H (eq. ii), tryptoquivaline H] | > 256 | >256 | >256 | >256 | >256 | >256 | >256 |  |
| C[C@@H]1N[C@@H]2N(C1=O)c1ccccc1[C@@]21C[C@@H](n2cnc3ccccc3c2=O)C(=O)O1 [FIG. 1H (eq. iii), tryptoquivaline F] | >256 | >256 | >256 | >256 | >256 | >256 | >256 |  |
| CC(C)[C@@H]1NC(=O)[C@@H](C[C@]2(O)c3ccccc3N3C(=O)C(C)(C)N[C@H]32)n2c1nc1ccccc1c2=O [FIG. 1I (eq. v), fiscalin C] | >256 | >256 | >256 | >256 | >256 | >256 | >256 | inhibition zone ([1]; fiscalin C in combination with ampicillin): 8 mm; inhibition zone ([1]; fiscalin C in combination with oxacillin): 10 mm; zone of inhibition on agar plates [1]: neither fiscalin C, ampicillin or oxacillin produced any zone of inhibition; MIC ([2]; drug alone, S. aureus B1): >512 µg/mL; combined effect with ampicillin ([2]; fiscalin C with ampicillin, S. aureus B1): indifferent; combined effect with oxacillin ([2]; listed as Fiscalin C): synergistic effect; combined effect with oxacillin ([2]; listed as fiscalin C): clear synergistic effect |
| epi-fiscalin C [FIG. 1I (eq. vi)] | >256 | >256 | >256 | >256 | >256 | >256 | >256 |  |
| CC1(C)C(=O)N2c3ccccc3C3(CC(n4cnc5ccccc5c4=O)C(=O)O3)C2N1O (centres unmarked) [FIG. 1H (eq. i), tryptoquivaline L] | > 256 | >256 | >256 | >256 | >256 | >256 | >256 |  |
| Cc1onc(-c2ccccc2)c1C(=O)N[C@@H]1C(=O)N2[C@@H]1SC(C)(C)[C@@H]2C(=O)O [Oxacillin, oxacillin, reference compound] |  |  |  |  |  |  |  | zone of inhibition on agar plates [1]: neither fiscalin C, ampicillin or oxacillin produced any zone of inhibition; MIC ([2]; Staphylococcus aureus, drug alone, S. aureus B1, read-out: MIC): 128 µg/mL |
